Experiments:
Assay in all cases: SelectScreen LanthaScreen Binding
Conditions in all cases: INX-0315 at 100nM
[1] = molecular target: T1, ACVR2A (Homo sapiens, UniProt P27037)
T1 construct: purchased Thermo Fisher Scientific SelectScreen (plus Nanosyn / Reaction Biology for CDK/cyclin lines)
Excerpt: (§1) INX-315 was first evaluated in the SelectScreen Biochemical Kinase Profiling at Thermo Fisher Scientific (Madison, WI). The primary screen consisted of INX-315 dosed at a single concentration of 100 nmol/L in 1% DMSO across each platform within the SelectScreen array of assays, LanthaScreen Eu Kinase Binding Assay; AdaptaScreen; and Z'LyteScreen using preestablished conditions at Thermo Fisher Scientific as shown in Supplementary Table S2. […] The follow-up screen consisted of 10-point dose–response curves for INX-315 from 1 µmol/L to 0.0495 nmol/L.

[2] = molecular target: T2, MAP3K11 (MLK3) (Homo sapiens, UniProt Q16584)
T2 construct: purchased Thermo Fisher Scientific SelectScreen (plus Nanosyn / Reaction Biology for CDK/cyclin lines)
Excerpt: as §1

[3] = molecular target: T3, TESK2 (Homo sapiens, UniProt Q96S53)
T3 construct: purchased Thermo Fisher Scientific SelectScreen (plus Nanosyn / Reaction Biology for CDK/cyclin lines)
Excerpt: as §1

[4] = molecular target: T4, KIT V654A (Homo sapiens, UniProt P10721, V654A)
T4 construct: purchased Thermo Fisher Scientific SelectScreen (plus Nanosyn / Reaction Biology for CDK/cyclin lines)
Excerpt: as §1

[5] = molecular target: T5, ULK1 (Homo sapiens, UniProt O75385)
T5 construct: purchased Thermo Fisher Scientific SelectScreen (plus Nanosyn / Reaction Biology for CDK/cyclin lines)
Excerpt: as §1

[6] = molecular target: T6, ABL1 H396P (Homo sapiens, UniProt P00519, H396P)
T6 construct: purchased Thermo Fisher Scientific SelectScreen (plus Nanosyn / Reaction Biology for CDK/cyclin lines)
Excerpt: as §1

[7] = molecular target: T7, FGFR3 K650M (Homo sapiens, UniProt P22607, K650M)
T7 construct: purchased Thermo Fisher Scientific SelectScreen (plus Nanosyn / Reaction Biology for CDK/cyclin lines)
Excerpt: as §1

[8] = molecular target: T8, PRKACB (PRKAC beta) (Homo sapiens, UniProt P22694)
T8 construct: purchased Thermo Fisher Scientific SelectScreen (plus Nanosyn / Reaction Biology for CDK/cyclin lines)
Excerpt: as §1

[9] = molecular target: T9, RET V804M (Homo sapiens, UniProt P07949, V804M)
T9 construct: purchased Thermo Fisher Scientific SelectScreen (plus Nanosyn / Reaction Biology for CDK/cyclin lines)
Excerpt: as §1

[10] = molecular target: T10, EPHA7 (Homo sapiens, UniProt Q15375)
T10 construct: purchased Thermo Fisher Scientific SelectScreen (plus Nanosyn / Reaction Biology for CDK/cyclin lines)
Excerpt: as §1

[11] = molecular target: T11, MYO3B (MYO3 beta) (Homo sapiens, UniProt Q8WXR4)
T11 construct: purchased Thermo Fisher Scientific SelectScreen (plus Nanosyn / Reaction Biology for CDK/cyclin lines)
Excerpt: as §1

[12] = molecular target: T12, EPHA6 (Homo sapiens, UniProt Q9UF33)
T12 construct: purchased Thermo Fisher Scientific SelectScreen (plus Nanosyn / Reaction Biology for CDK/cyclin lines)
Excerpt: as §1

[13] = molecular target: T13, ICK (Homo sapiens, UniProt Q9UPZ9)
T13 construct: purchased Thermo Fisher Scientific SelectScreen (plus Nanosyn / Reaction Biology for CDK/cyclin lines)
Excerpt: as §1

[14] = molecular target: T14, ERN1 (Homo sapiens, UniProt O75460)
T14 construct: purchased Thermo Fisher Scientific SelectScreen (plus Nanosyn / Reaction Biology for CDK/cyclin lines)
Excerpt: as §1

[15] = molecular target: T15, ACVR2B (Homo sapiens, UniProt Q13705)
T15 construct: purchased Thermo Fisher Scientific SelectScreen (plus Nanosyn / Reaction Biology for CDK/cyclin lines)
Excerpt: as §1

[16] = molecular target: T16, FYN A (Homo sapiens, UniProt P06241)
T16 construct: purchased Thermo Fisher Scientific SelectScreen (plus Nanosyn / Reaction Biology for CDK/cyclin lines)
Excerpt: as §1

[17] = molecular target: T17, GAK (Homo sapiens, UniProt O14976)
T17 construct: purchased Thermo Fisher Scientific SelectScreen (plus Nanosyn / Reaction Biology for CDK/cyclin lines)
Excerpt: as §1

[18] = molecular target: T18, TEK (TIE2) Y1108F (Homo sapiens, UniProt Q02763, Y1108F)
T18 construct: purchased Thermo Fisher Scientific SelectScreen (plus Nanosyn / Reaction Biology for CDK/cyclin lines)
Excerpt: as §1

[19] = molecular target: T19, TAOK3 (JIK) (Homo sapiens, UniProt Q9H2K8)
T19 construct: purchased Thermo Fisher Scientific SelectScreen (plus Nanosyn / Reaction Biology for CDK/cyclin lines)
Excerpt: as §1

[20] = molecular target: T20, AMPK (A1/B2/G1) (Homo sapiens, UniProt Q13131)
T20 construct: purchased Thermo Fisher Scientific SelectScreen (plus Nanosyn / Reaction Biology for CDK/cyclin lines)
Excerpt: as §1

[21] = molecular target: T21, ULK3 (Homo sapiens, UniProt Q6PHR2)
T21 construct: purchased Thermo Fisher Scientific SelectScreen (plus Nanosyn / Reaction Biology for CDK/cyclin lines)
Excerpt: as §1

[22] = molecular target: T22, STK17A (DRAK1) (Homo sapiens, UniProt Q9UEE5)
T22 construct: purchased Thermo Fisher Scientific SelectScreen (plus Nanosyn / Reaction Biology for CDK/cyclin lines)
Excerpt: as §1

[23] = molecular target: T23, MAP3K2 (MEKK2) (Homo sapiens, UniProt Q9Y2U5)
T23 construct: purchased Thermo Fisher Scientific SelectScreen (plus Nanosyn / Reaction Biology for CDK/cyclin lines)
Excerpt: as §1

[24] = molecular target: T24, MET D1228H (Homo sapiens, UniProt P08581, D1228H)
T24 construct: purchased Thermo Fisher Scientific SelectScreen (plus Nanosyn / Reaction Biology for CDK/cyclin lines)
Excerpt: as §1

[25] = molecular target: T25, GRK1 (Homo sapiens, UniProt Q15835)
T25 construct: purchased Thermo Fisher Scientific SelectScreen (plus Nanosyn / Reaction Biology for CDK/cyclin lines)
Excerpt: as §1

[26] = molecular target: T26, SIK1 (Homo sapiens, UniProt P57059)
T26 construct: purchased Thermo Fisher Scientific SelectScreen (plus Nanosyn / Reaction Biology for CDK/cyclin lines)
Excerpt: as §1

[27] = molecular target: T27, EPHA3 (Homo sapiens, UniProt P29320)
T27 construct: purchased Thermo Fisher Scientific SelectScreen (plus Nanosyn / Reaction Biology for CDK/cyclin lines)
Excerpt: as §1

[28] = molecular target: T28, IRAK3 (Homo sapiens, UniProt Q9Y616)
T28 construct: purchased Thermo Fisher Scientific SelectScreen (plus Nanosyn / Reaction Biology for CDK/cyclin lines)
Excerpt: as §1

[29] = molecular target: T29, ACVRL1 (ALK1) (Homo sapiens, UniProt P37023)
T29 construct: purchased Thermo Fisher Scientific SelectScreen (plus Nanosyn / Reaction Biology for CDK/cyclin lines)
Excerpt: as §1

[30] = molecular target: T30, TGFBR1 (ALK5) (Homo sapiens, UniProt P36897)
T30 construct: purchased Thermo Fisher Scientific SelectScreen (plus Nanosyn / Reaction Biology for CDK/cyclin lines)
Excerpt: as §1

[31] = molecular target: T31, MKNK2 (MNK2) (Homo sapiens, UniProt Q9HBH9)
T31 construct: purchased Thermo Fisher Scientific SelectScreen (plus Nanosyn / Reaction Biology for CDK/cyclin lines)
Excerpt: as §1

[32] = molecular target: T32, TEC (Homo sapiens, UniProt P42680)
T32 construct: purchased Thermo Fisher Scientific SelectScreen (plus Nanosyn / Reaction Biology for CDK/cyclin lines)
Excerpt: as §1

[33] = molecular target: T33, NLK (Homo sapiens, UniProt Q9UBE8)
T33 construct: purchased Thermo Fisher Scientific SelectScreen (plus Nanosyn / Reaction Biology for CDK/cyclin lines)
Excerpt: as §1

[34] = molecular target: T34, BRAF V599E (Homo sapiens, UniProt P15056, V600E)
T34 construct: purchased Thermo Fisher Scientific SelectScreen (plus Nanosyn / Reaction Biology for CDK/cyclin lines)
Excerpt: as §1

[35] = molecular target: T35, MAP2K4 (MEK4) (Homo sapiens, UniProt P45985)
T35 construct: purchased Thermo Fisher Scientific SelectScreen (plus Nanosyn / Reaction Biology for CDK/cyclin lines)
Excerpt: as §1

[36] = molecular target: T36, BMPR1B (ALK6) (Homo sapiens, UniProt O00238)
T36 construct: purchased Thermo Fisher Scientific SelectScreen (plus Nanosyn / Reaction Biology for CDK/cyclin lines)
Excerpt: as §1

[37] = molecular target: T37, STK38 (NDR) (Homo sapiens, UniProt Q15208)
T37 construct: purchased Thermo Fisher Scientific SelectScreen (plus Nanosyn / Reaction Biology for CDK/cyclin lines)
Excerpt: as §1

[38] = molecular target: T38, ALK R1275Q (Homo sapiens, UniProt Q9UM73, R1275Q)
T38 construct: purchased Thermo Fisher Scientific SelectScreen (plus Nanosyn / Reaction Biology for CDK/cyclin lines)
Excerpt: as §1

T12 sequence (Q9UF33 23-1036): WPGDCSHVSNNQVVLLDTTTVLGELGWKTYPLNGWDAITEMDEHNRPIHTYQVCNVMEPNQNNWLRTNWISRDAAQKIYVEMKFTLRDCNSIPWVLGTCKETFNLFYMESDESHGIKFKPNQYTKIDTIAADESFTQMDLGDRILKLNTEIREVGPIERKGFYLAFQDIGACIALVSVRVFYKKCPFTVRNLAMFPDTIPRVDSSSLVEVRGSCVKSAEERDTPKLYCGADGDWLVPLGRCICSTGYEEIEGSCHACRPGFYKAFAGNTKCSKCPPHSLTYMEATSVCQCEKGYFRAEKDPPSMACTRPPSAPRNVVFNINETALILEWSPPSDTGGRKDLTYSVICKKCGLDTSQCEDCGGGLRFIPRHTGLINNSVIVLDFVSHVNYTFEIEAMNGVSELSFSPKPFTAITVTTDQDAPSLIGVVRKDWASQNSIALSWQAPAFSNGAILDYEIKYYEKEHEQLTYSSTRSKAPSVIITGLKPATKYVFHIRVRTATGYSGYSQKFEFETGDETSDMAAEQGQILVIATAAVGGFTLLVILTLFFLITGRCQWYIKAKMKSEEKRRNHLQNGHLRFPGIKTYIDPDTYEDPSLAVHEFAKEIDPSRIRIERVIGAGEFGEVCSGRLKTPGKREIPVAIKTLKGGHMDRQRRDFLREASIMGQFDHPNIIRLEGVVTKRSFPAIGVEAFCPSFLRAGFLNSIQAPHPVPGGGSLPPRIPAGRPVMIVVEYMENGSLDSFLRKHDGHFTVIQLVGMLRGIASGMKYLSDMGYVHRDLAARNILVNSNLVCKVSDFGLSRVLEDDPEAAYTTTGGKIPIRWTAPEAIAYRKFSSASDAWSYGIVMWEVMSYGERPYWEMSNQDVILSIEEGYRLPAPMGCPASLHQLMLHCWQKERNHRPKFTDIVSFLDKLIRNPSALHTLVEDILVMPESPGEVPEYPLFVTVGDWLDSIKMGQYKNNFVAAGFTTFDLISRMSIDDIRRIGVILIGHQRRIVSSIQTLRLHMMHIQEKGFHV
T14 sequence (O75460 19-977): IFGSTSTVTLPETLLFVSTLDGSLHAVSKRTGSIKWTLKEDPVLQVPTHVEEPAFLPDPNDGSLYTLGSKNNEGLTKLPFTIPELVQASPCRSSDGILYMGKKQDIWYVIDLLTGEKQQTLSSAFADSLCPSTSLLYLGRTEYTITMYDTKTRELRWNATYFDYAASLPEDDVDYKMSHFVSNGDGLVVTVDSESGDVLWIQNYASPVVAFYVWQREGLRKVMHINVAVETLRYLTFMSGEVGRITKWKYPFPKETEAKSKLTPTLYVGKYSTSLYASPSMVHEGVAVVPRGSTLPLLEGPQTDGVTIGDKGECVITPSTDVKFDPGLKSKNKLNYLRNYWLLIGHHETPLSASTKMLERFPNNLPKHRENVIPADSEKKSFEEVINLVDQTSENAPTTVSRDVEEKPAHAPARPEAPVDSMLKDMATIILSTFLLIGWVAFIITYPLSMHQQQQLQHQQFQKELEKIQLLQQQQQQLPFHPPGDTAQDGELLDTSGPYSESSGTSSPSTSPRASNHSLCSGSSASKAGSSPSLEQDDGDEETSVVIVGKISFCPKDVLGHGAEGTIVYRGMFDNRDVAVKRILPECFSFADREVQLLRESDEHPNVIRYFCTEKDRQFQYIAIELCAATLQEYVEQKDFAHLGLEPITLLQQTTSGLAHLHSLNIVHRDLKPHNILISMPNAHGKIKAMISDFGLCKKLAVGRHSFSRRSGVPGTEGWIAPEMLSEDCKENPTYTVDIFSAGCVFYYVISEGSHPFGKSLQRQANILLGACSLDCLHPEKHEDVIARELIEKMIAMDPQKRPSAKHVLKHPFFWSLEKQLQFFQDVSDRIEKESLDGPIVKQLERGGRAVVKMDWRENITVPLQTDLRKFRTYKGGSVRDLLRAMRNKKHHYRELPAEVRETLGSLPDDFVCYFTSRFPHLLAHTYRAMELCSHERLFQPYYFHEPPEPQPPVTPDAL
T21 sequence (Q6PHR2 whole entry): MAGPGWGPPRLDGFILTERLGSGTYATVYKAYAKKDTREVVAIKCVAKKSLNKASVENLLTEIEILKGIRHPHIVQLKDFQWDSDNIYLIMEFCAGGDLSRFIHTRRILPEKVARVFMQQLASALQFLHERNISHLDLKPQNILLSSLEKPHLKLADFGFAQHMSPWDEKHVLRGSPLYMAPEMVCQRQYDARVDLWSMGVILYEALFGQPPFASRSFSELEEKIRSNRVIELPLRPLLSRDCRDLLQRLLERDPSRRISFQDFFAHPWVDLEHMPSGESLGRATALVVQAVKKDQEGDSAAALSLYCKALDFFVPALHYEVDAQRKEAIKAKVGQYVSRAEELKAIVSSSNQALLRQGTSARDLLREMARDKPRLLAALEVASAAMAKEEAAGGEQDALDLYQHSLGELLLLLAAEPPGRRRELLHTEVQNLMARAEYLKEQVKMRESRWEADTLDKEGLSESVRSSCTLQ
T23 sequence (Q9Y2U5 whole entry): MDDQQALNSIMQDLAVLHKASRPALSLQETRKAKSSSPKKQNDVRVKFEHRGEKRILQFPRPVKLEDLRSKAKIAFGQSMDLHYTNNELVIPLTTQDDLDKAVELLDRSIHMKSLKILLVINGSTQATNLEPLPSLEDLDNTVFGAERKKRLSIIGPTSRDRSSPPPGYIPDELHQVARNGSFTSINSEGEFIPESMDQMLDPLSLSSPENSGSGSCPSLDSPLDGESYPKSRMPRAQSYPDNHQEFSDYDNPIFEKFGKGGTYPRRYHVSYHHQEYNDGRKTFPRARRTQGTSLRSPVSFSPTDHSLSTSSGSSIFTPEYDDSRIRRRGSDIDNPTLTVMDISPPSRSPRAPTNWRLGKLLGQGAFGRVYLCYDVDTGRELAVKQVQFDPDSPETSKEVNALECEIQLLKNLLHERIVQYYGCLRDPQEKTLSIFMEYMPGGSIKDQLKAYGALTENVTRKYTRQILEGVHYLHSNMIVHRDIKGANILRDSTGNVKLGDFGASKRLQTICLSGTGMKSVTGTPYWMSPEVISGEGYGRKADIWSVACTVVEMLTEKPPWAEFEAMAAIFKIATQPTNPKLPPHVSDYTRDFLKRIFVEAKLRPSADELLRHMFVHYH
T24 sequence (P08581 25-1390 D1228H): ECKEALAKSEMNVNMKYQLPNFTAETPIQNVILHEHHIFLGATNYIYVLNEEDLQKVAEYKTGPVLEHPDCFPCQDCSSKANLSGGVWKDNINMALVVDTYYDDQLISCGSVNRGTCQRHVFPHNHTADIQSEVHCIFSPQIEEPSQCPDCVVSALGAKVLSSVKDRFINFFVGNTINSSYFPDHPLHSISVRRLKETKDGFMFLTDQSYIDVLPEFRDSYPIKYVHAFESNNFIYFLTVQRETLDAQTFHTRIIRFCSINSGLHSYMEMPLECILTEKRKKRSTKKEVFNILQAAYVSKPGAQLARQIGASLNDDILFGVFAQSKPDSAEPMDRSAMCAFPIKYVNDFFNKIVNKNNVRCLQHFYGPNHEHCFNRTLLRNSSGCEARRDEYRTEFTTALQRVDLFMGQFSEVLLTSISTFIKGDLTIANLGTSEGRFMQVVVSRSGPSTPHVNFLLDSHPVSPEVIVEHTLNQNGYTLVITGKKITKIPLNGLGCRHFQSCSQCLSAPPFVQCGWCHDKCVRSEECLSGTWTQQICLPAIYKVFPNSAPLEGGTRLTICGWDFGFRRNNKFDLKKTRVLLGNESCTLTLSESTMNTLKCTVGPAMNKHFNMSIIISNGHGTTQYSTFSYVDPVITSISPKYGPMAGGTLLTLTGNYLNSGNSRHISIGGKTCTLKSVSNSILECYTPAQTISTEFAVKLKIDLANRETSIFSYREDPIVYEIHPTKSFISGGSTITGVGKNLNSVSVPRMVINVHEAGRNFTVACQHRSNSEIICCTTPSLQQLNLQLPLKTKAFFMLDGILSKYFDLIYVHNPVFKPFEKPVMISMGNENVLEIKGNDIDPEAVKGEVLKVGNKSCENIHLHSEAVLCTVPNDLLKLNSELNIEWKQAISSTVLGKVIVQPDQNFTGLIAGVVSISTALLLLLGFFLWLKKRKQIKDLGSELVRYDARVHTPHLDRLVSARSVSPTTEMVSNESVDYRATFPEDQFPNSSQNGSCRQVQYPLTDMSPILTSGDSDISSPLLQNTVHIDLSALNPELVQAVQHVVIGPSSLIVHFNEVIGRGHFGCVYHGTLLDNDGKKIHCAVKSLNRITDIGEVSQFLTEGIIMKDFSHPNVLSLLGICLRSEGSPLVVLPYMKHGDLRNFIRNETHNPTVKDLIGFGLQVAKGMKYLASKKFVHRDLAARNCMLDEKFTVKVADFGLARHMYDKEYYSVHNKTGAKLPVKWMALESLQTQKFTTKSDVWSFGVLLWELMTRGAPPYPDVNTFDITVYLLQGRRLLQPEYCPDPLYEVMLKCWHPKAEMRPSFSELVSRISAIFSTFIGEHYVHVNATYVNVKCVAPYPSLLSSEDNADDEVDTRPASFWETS
T3 sequence (Q96S53 whole entry): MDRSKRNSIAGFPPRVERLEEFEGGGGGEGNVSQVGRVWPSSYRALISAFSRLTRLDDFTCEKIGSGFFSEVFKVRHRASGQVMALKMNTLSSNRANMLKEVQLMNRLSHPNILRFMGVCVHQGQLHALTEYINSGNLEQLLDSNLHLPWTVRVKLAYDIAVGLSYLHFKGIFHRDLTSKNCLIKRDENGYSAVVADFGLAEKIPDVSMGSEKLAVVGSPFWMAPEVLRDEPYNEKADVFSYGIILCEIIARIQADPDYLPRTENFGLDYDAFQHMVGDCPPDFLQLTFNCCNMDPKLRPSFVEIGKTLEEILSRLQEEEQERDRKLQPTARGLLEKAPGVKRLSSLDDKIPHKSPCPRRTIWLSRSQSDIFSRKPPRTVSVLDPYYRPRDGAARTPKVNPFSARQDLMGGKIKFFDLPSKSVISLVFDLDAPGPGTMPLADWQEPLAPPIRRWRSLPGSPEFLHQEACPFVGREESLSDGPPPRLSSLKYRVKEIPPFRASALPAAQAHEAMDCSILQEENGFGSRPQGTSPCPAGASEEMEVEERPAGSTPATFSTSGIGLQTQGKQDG

In the case of `NS(=O)(=O)c1ccc(Nc2ncc3cc4n(c3n2)C2(CCCCC2)C(=O)NN4)cc1` [INX-315], the inhibition at 0.1 µM [1] is reported as 3%, the inhibition at 0.1 µM [2] is reported as 13% and the inhibition at 0.1 µM [3] is reported as -1%. For the same compound, the inhibition at 0.1 µM [4] was 26%, the inhibition at 0.1 µM [5] was 1% and the inhibition at 0.1 µM [6] was 12%. For the same compound, the inhibition at 0.1 µM [7] was 14%, the inhibition at 0.1 µM [8] was 1% and the inhibition at 0.1 µM [9] was 21%. For the same compound, the inhibition at 0.1 µM [10] was 9%, the inhibition at 0.1 µM [11] was 0% and the inhibition at 0.1 µM [12] was 10%. The inhibition at 0.1 µM [13] was 28%, the inhibition at 0.1 µM [14] was 11% and the inhibition at 0.1 µM [15] was -2%. For the same compound, the inhibition at 0.1 µM [16] was 7%, the inhibition at 0.1 µM [17] was 38% and the inhibition at 0.1 µM [18] was 2%. It also gave an inhibition at 0.1 µM [19] of 4%, an inhibition at 0.1 µM [20] of 36% and an inhibition at 0.1 µM [21] of 25%. It also gave an inhibition at 0.1 µM [22] of 2%, an inhibition at 0.1 µM [23] of 12% and an inhibition at 0.1 µM [24] of -6%. For the same compound, the inhibition at 0.1 µM [25] was 27%, the inhibition at 0.1 µM [26] was 4% and the inhibition at 0.1 µM [27] was -1%. The inhibition at 0.1 µM [28] was 45%, the inhibition at 0.1 µM [29] was 2% and the inhibition at 0.1 µM [30] was 4%. For the same compound, the inhibition at 0.1 µM [31] was 2%, the inhibition at 0.1 µM [32] was 4% and the inhibition at 0.1 µM [33] was 0%. For the same compound, the inhibition at 0.1 µM [34] was -2%, the inhibition at 0.1 µM [35] was 17% and the inhibition at 0.1 µM [36] was 1%. It also gave an inhibition at 0.1 µM [37] of 0% and an inhibition at 0.1 µM [38] of 10%.
